Columns and labels:
[1] = ALD50 in mice (acute toxicity, i.p.); settings: mouse, in vivo, ip
Description: (§1) 5-hydroxy-2-methyl-7,8-cyclopentano[h]-1,2,3,4-tetrahydroisoquinoline has an ALD50 in mice of 100-150 mg/kg i.p. When administered as the base at 50 mg/kg i.p. to hypertensive rats the following percent change in systolic blood pressure was observed: […]

hypertensive rats = assay: percent change in systolic blood pressure in hypertensive rats; type: in vivo; settings: base at 50 mg/kg i.p.
Description: as §1

Compound: CN1CCc2c(O)cc3c(c2C1)CCC3 [5-hydroxy-2-methyl-7,8-cyclopentano[h]-1,2,3,4-tetrahydroisoquinoline]
- LD50 [1]: 100 to 150 mg/kg
- percent change in systolic blood pressure (hypertensive rats; 1 hour): -18.9%
- percent change in systolic blood pressure (hypertensive rats; 2 hours): -13.6%
- percent change in systolic blood pressure (hypertensive rats; 4 hours): -11.2%
- percent change in systolic blood pressure (hypertensive rats; 24 hours): -4.7%

— patent publication US4059586A, “5-Alkoxy-2-alkyl-1,2,3,4-tetrahydroisoquinolene-8-carboxaldehyde and derivatives” (Marion Laboratories, Inc., priority 1976, dated 1977)
